Experimental data taken from US20050214738A1, “Conditional allele system” (priority 2003, published 2005).

Legend:
FKBP-GSK3β-GFP = target: T1, FKBP-GSK3β-GFP (Homo sapiens, UniProt P62942); test: Sub-cellular localization of FKBP-GSK3β-GFP with FRB(TLW)-NES and FRB(KTF)-NLS in COS1 cells; assay type: cell-based; conditions: 10 nM, 1 hour
T1 construct: expressed in transfected cells; host or cells: COS1 cells
Experimental: COS1 cells were electroporated with 1 μg pS-FKBP-GSK3β-GFP, 1 μg of the ‘exporter’ pBJ5-FRB(TLW)-Exp-HA containing a nuclear export sequence derived from the rev protein of Human Immunodeficiency Virus and 3 μg of the ‘importer’ pBJ5-FRB(KTF)-Imp with a nuclear localization sequence from SV40 Large T antigen. Cells were plated on autoclaved coverslips and incubated 36 hours followed by 1 hour of rapalog treatment (10 nM). Cells were fixed 10 minutes in 4% paraformaldeyde/PBS at 4° C. and mounted for microscopy with DAPI to visualize the nucleus. Microscopy was perfomed with a Leica confocal microscope and Leica software.

mutant FRBs = test: SeAP transcriptional switch assay, panel of FRB mutants at 2095, 2098, 2101; assay type: cell-based, human; conditions: Phe at 2101
Experimental: All FRB mutants were prepared by the Quikchange mutagenesis method (Stratagene) using protocols provided by the manufacturer. Briefly, PCR reactions containing the parent plasmid pBJ5-FRB-VP16-HA or pBJ5-FRB*-VP16-HA and overlapping oligonucleotides containing the relevant base changes were performed with Pfu polymerase (Stratagene, San Diego, Calif.). PCR reactions were digested with the methylation sensitive restriction endonuclease Dpn1 to eliminate the parent plasmid and the reaction was transformed in XL10-Gold Ultracompetent E. coli (Stratagene).
Electroporation details are available upon request. Cells were immediately aliquoted to 2 or 3×96 well plates with flat bottoms. […] Data was analysed with Softmax Pro (Molecular Devices), Microsoft Excel and Prism 3 (GraphPad Software).

T1 sequence (P62942 whole entry): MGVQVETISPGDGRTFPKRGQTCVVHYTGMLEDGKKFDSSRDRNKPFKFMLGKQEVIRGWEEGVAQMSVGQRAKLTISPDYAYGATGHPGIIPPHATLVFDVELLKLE

sub-cellular localization of GSK3β (FKBP-GSK3β-GFP): localized to the cytoplasm
binding to mutant FRBs with Phe substituted at amino acid 2101 (mutant FRBs): little or no binding
Substance: C16-(S)Butylsulfonylrapamycin [C16-BSrap, reference compound]
